Results reported in patent publication US20230066065A1, “USE OF LOW DOSES OF HYDROXYCHLOROQUINE FOR THE TREATMENT OF LIPIN-1 DEFICIENCY” (Institut National de la Santé et de la Recherche Médicale …, priority 2020, published 2023).
Where “and” joins values, the source holds several entries; their conditions need not be identical. Equal values may be shown once. Entries after “also recorded” stand apart in the source; their conditions may differ.

Legend:
[1] = tested on: IL8; experiment: Plasma cytokine concentration, Cytometric Bead Assay; assay type: in vivo, human; settings: all patients tested, following vs prior treatment
Method: (§1) Cytokine concentrations were measured in plasma using a ten-plex Cytometric Bead Assay (CBA) kit from BD Biosciences, according to the manufacturer's instructions, then analyzed by flow cytometry (ARIA II; BD Biosciences) with CBA Analysis Software (FCAP Array version 3.0; Soft Flow, St Louis Park, Minn.). The results were expressed in picograms per milliliter.

[2] = tested on: MCP-1; experiment: as above; assay type: in vivo, human; settings: all patients tested, following vs prior treatment
Method: as §1

[3] = tested on: patients with Lipin-1 deficiency; experiment: Off open-label use phases 1 and 2 study: number of rhabdomyolysis (RM) episodes under HCQ; assay type: in vivo, human
Method: Ten patients with Lipin-1 deficiency were progressively enrolled in an off open-label use phases 1 and 2 study to assess safety, clinical, and biological effects of Hydroxychloroquine Sulfate (HCQ). The diagnosis of Lipin-1 disease was confirmed in all patients (Table 1). LPIN1 genotyping was performed by PCR analysis of DNA isolated from blood as previously described^2. The patients presented severe episodes of acute RM (1 to 6) defined as creatine kinase (CK) levels >6 000 U/L (normal<160 U/L), associated with mild viral illness, fasting, or prolonged exercise. Chronic symptoms such as muscle pain, fatigability, exercise intolerance, or more rarely cardiac feature were associated in 6 patients.
The patients were treated with oral HCQ at an initial posology of 6.5 mg/Kg/day in one intake, not exceeding 400 mg/day, with different treatment duration depending on the patient (Table 2). Tablets (200 mg) were proposed to patients over 6 years old, and soluble form to patients under 6 years old.
Efficacy and safety of HCQ in patients were assessed by clinical and biological evaluation determined at baseline before HCQ treatment and at regular intervals after initiation of HCQ treatment (every 3 to 6 months).
The clinical parameters encompassed the RM episode number and several standardized tools based on age at study start: auto evaluations assessing the muscle pain and the quality of life, 6-Minute Walk Test, 3-Minute Step Test, heart ultrasounds, and exercise tolerance test in the subgroup of subjects>6 years old^11.
The patients were treated with oral HCQ at a initial posology of 6.5 mg/Kg/day in one intake, not exceeding 400 mg/day, with different treatment duration depending on the patient (Table 2). The data were collected at the Necker Hospital (Reference Center of Metabolic diseases) during the visits: M0 (before treatment), M3 (3 months treatment), M6 then every 6 months. The efficacy outcome of the treatment was measured by clinical and biological endpoints.

[4] = tested on: patients with Lipin-1 deficiency; experiment: Evaluation of the tolerance of HCQ (allergy, abdominal pain, eye fundus, retinogram); assay type: in vivo, human
[5] = tested on: patients with Lipin-1 deficiency; experiment: Muscle pain (VAS) and quality-of-life (PedsQL) questionnaires; assay type: in vivo, human
Text: VAS questionnaire was completed by the patient and their parents for evaluating muscle pain, ranged from score 4: not painful, to 40: very painful. Two Quality-of-life assessment ([…]) adapted to the age of the patient were completed by either the patient or their parents. The score ranged from 0: very good quality of life, to 92: very bad quality of life.

[6] = tested on: LC3-II in Lipin-1 deficient and control myoblasts; experiment: Autophagy: LC3-II/B-actin ratio by Western Blot in primary myoblasts under immunometabolic stress (EBSS + CpG-A); assay type: cell-based, human
Method: (§2) Human primary myoblasts were isolated and grown as described^19. Briefly, CD56+ myoblasts isolated by flow cytometry cell sorting were maintained in HamF10 medium supplemented with 20% fetal calf serum on culture plates coated with 1% gelatin. To mimic RM, F10 medium was replaced by EBSS ([…]) (4 h) with TLR9 agonist CpGA (ODN2216) at the concentration of 10 μg/ml. Myoblasts were incubated with various HCQ concentrations (0.1 to 10 μM) 18 h before and during myoblasts starvation.
Autophagy measurements. Autophagy was analyzed using the LC3-II/B-actin ratio by Western Blot. The following antibodies used in this study were: mouse-anti-β-actin (sc-81178, Santa Cruz Biotechnology, western blotting (WB): 1:5000), mouse-anti-LC3B (clone 4E12, MBL International, IF: 1:100).

[7] = tested on: primary patients myoblasts; assay type: cell-based, human
Text: Then, we were interested in the dosage og HCQ in vitro in order to analyse the HCQ incorporation in primary patients myoblasts.

[8] = Dosage of Hydroxychloroquine in blood/plasma of treated patients; assay type: in vivo, human
Method: Clinical and biological parameters were evaluated in parallel of the dosage of HCQ, performed on total blood samples with HPLC. Biological parameter consisted in measuring pro-inflammatory cytokines in plasma with […]. Physical condition included muscle pain (VAS score), quality-of-life assessment (PedsQL™ score), the distance walked during the 6-minute test, the number of steps climbed during the 3-minute test, cardiac function and sub-maximal exercise test. In vitro studies were performed on primary myoblasts from 4 patients and healthy controls. Autophagy was analyzed by measuring the ratio between LC3-II and B-actin by Western Blot. Oxidized DNA was studied by immunofluorescence staining. MtDNA levels was performed by using qPCR.
The dosage of Hydroxychloroquine was performed on total blood samples at a rate of 5 ml per assay tube, using EDTA tubes, and stored at +4° C. (dosages performed in the pharmacology/toxicology Department of the Hospital Cochin and Hospital La Pitié-Salpétrière).

[9] = tested on: Lipin-1 deficient myoblasts; experiment: Oxidized DNA (8-OHdG) immunofluorescence staining in myoblasts under immunometabolic stress; assay type: cell-based, human
Method: as §2
Imuunofluorescence staining. Oxidized DNA on fixed cells was detected with mouse-anti-8-OHdG (sc-66036, Santa Cruz Biotechnology, IF: 1:100)^54 and analyzed by confocal fluorescence microscopy. Images were recorded on a confocal LSM 700 microscope (Zeiss), with a 63× oil immersion objective and quantification was performed by analyzing cells on the Icy software (v 1.9.5.1 BioImage Analysis unit, Institut Pasteur, France).

[10] = tested on: patients with Lipin-1 deficiency; experiment: Echocardiography (LVEF); assay type: in vivo, human
Method: Echocardiography was performed using a Vivid 9 system (General Electric Vingmed Ultrasound, Horten, Norway). Transducers ([…]) were chosen based on patient size and morphology to obtain the best image resolution. Images were acquired and stored in a digital format by two experienced examiners for offline analysis using EchoPac version 112.0.1 software (General Electric Vingmed). All records were performed while the patient was in sinus rhythm under continuous monitoring via electrocardiogram. All measurements of ventricular dimensions and function were performed according to the guidelines of the American and European Societies of Echocardiography^51.
The global longitudinal strain of the left ventricle was defined as the percentage of change during myocardial deformation and was evaluated through the speckle-tracking method using EchoPac (2D strain Q analysis) version 112.0.1 (General Electric Vingmed)^11.

[11] = tested on: patients with Lipin-1 deficiency; experiment: Cardiopulmonary exercise test, cycle ergometer (dQ/dVO2); assay type: in vivo, human
Method: Patients≥6 years old underwent cardiopulmonary exercise tests (CPETs). CPETs were performed to assess the maximal exercise capacity using a cycle ergometer^11. The CPET data were compared with retrospectively collected data from a population of 21 paired children who required non-invasive cardiac output monitoring because of dyspnoea during exercise or chest pain and were considered healthy at the end of the examinations. Pairing was conducted according to sex and age. Oxygen uptake (VO2) and carbon dioxide output were measured breath-by-breath by an automated system (Sensor Medic, MSE). Measurements were taken at rest and every 20 s throughout exercise and recovery. The exercise test was considered maximal if the patient achieved a respiratory exchange ratio (RER)>1.1 and/or a maximal heart rate>85% of the theoretical maximal heart rate, and/or the oxygen uptake reached a plateau^11. Cardiac output (Q) and stroke volume (SV) were determined noninvasively during the exercise test using a thoracic bioelectrical impedance device (PhysioFlow, PF-05 Lab 1, Manatec Biomedical) as routinely performed in our centre. We calculated the slope of the relationship between cardiac output and oxygen utilization (dQ/dVO2) using measurements of Q and VO2 at rest as well as during submaximal and maximal exercise.

[12] = tested on: patients with Lipin-1 deficiency; experiment: 6-Minute Walk Test and 3-Minute Step Test; assay type: in vivo, human; settings: patients older than 6 y; versus prior treatment
Method: Muscle function was assessed by walking capacity within a 6-Minute Walk Test (6 MWT)^48,49 and by stair climbing capacity within a 3-Minute Step Test (3 MST)^50. The objectives were to walk and climb steps as far as possible for 6 and 3 minutes respectively.

[13] = tested on: CYP3A4/CYP2C8; settings: cited from earlier work
[14] = tested on: Lipin-1 deficient myoblasts; experiment: MtDNA levels by qPCR in myoblasts under immunometabolic stress; assay type: cell-based, human; settings: myoblasts of P1, P4, P6 and P11; results need to be reproduced
Method: as §2
MtDNA levels was performed by using qPCR for the mitochondrial12S gene reported to the nuclear β-actin gene. Quantitative PCR was performed in triplicate using the Light Cycler VIIA7 System (Roche).

[15] = tested on: TLR9; experiment: Relative TLR9 expression in myoblasts, RT-qPCR; assay type: cell-based, human; settings: patient and control myoblasts; EBSS + CpG-A
Text: FIG. 7.(A-C) Relative TLR9 expression in Lipin-1 deficient and control myoblasts; comparison between basal condition and immunometabolic stress (A-B) and after HCQ treatment compared to immunometabolic stress (C); RT-qPCR. compared to basal condition in myoblasts. GM: growth medium; E: EBSS; C: CpG-A; HCQ: Hydroxychloroquine.
as §2

SMILES: CCN(CCO)CCCC(C)Nc1ccnc2cc(Cl)ccc12.O=S(=O)(O)O (centres unmarked) [HCQ, 2-[[4-[(7-Chloro-4-quinolyl)amino]pentyl]ethylamino] ethanol sulfate (1:1)]
- plasma level of IL8 [1]: reduced
- plasma level of MCP-1 [2]: reduced
- patients without new acute RM under treatment ([3]; of 10 patients, 29 RM prior to treatment): Seven
- RM after resumption of treatment ([3]; patient P1): No other RM was observed
- RM after HCQ disruption ([3]; patient P1, discontinued at M9, within 6 weeks after disruption): underwent extensive RM
- Number of severe RM (CPK > 10k U/L) during treatment ([3]; patient P1-P10, oral HCQ, initial 6.5 mg/Kg/day, treatment duration 12-41 months): 0 (7×) and 1 and 3 and 4
- episodes of RM despite HCQ ([3]; patient P5, context of gastroenteritis): one
- episodes of RM despite HCQ ([3]; patient P6, context of gastroenteritis): two
- benefit effect of HCQ ([3]; patient P7): had not seem to have benefit effect
- Electroretinogramms and eye fundus ([4]; 12 months of treatment, all patients tested): normal
- allergy symptoms with HCQ treatment ([4]; all patients): Any allergy symptoms have been observed
- tolerance of HCQ in patients ([4]; overall): well tolerated
- Side effects associated with HCQ ([4]; patients 5 and 6): abdominal pain
- VAS pain score, change under treatment ([5]; 2 other patients): no difference
- VAS pain score, median following treatment ([5]; 4 patients, score 4 not painful - 40 very painful, median 12.25 prior treatment): 7
- PedsQL quality-of-life median score under treatment ([5]; 6 patients, 0 very good - 92 very bad, score 25 before treatment): 17.1
- LC3-II accumulation (autophagy blockage) under immunometabolic stress ([6]; HCQ 10 μM, control and patients myoblasts): potentiates LC3-II accumulation
- LC3-II accumulation (autophagy blockage) under immunometabolic stress ([6]; HCQ 0.1 and 1 μM): less deleterious
- HCQ incorporation in primary myoblasts [7]: HCQ incorporation is effective
- plasma HCQ levels ([8]; P5 and P6, who experimented RM, oral 6.5 mg/Kg/day): 1000 ng/mL
- Plasma HCQ (μg/L) mean ([8]; patient P1-P10, oral HCQ, mean of visits): 107 µg/L and 724 µg/L and 627 µg/L and 1048 µg/L and 1040 µg/L and 290 µg/L and 610 µg/L and 407 µg/L and 752 µg/L and 318 µg/L
- Plasma HCQ (μg/L) (median) ([8]; patient P1-P10, oral HCQ, median of visits): (107) μg/L and (854) μg/L and (597) μg/L and (955) μg/L and (1092) μg/L and (205) μg/L and (610) μg/L and (367) μg/L and (733) μg/L and 325) μg/L
- Levels of HCQ measured at each visit ([8]; patients other than P5 and P6, oral 6.5 mg/Kg/day): ~0.4 µg/mL
- oxDNA levels in myoblasts ([9]; HCQ 0.1 to 10 μM): normalized oxDNA levels
- accumulation of oxDNA under immunometabolic stress ([9]; myoblasts of P1, P4, P6 and P11, EBSS + CpG-A): prevents this accumulation
- LVEF ([10]; patient P3, M3 of treatment, 45% before): 62%
- LVEF ([10]; patient P3, M6, M9, M12 following treatment): 63%
- LVEF ([10]; patient P3, after they stopped treatment): 55%
- dQ/dVO2 ratio after initiation of treatment, global mean ([11]; four patients with abnormal peripheral muscle, baseline means 7, 9.5, 9.1, 7.5): 5.8
- dQ/dVO2 ratio under treatment, mean ([11]; patient P3 with cardiac failure, baseline mean 4): 4.8
- increase of median score in 3 MST following treatment [12]: 31 steps
- increase of median score in 6 MWT following treatment [12]: ~100 meters
- share of the HCQ metabolism by CYP3A4/CYP2C8 [13]: 80%
- accumulation of mtDNA under immunometabolic stress [14]: prevents this accumulation
- TLR9 expression under stress condition [15]: variable effect; also recorded: could not decrease TLR9 expression
